Experimental data published in patent publication US5385910A, “Gem-distributed esters of rapamycin” (American Home Products Corporation, priority 1993, dated 1995).
Several values for one entry are separate records, joined by “and”; a condition that tells them apart may be missing. Identical values can stand only once. Counter-ions that a name gives are not always drawn. Like-named read-outs stand apart in the source and are kept apart here.

How the values were obtained:
[1] = test system: thymus cells of normal BALB/c mice (PHA and IL-1 induced lymphocyte proliferation); test: comitogen-induced thymocyte proliferation procedure (LAF); type: cell-based; settings: for IC50: read-out: LAF IC50
Experimental: (§1) Immunosuppressive activity for representative compounds of this invention was evaluated in an in vitro standard pharmacological test procedure to measure lymphocyte proliferation (LAF) and in three in vivo standard pharmacological test procedures. The pinch skin graft test procedure measures the immunosuppressive activity of the compound tested as well as the ability of the compound tested to inhibit or treat transplant rejection. The adjuvant arthritis standard pharmacological test procedure, which measures the ability of the compound tested to inhibit immune mediated inflammation. The adjuvant arthritis test procedure is a standard pharmacological test procedure for rheumatoid arthritis. Representative compounds of this invention were also evaluated in a heart allograft standard pharmacological test procedure which measures immunosuppressive activity of the compound tested as well as the ability of the compound tested to inhibit or treat transplant rejection. The procedures for these standard pharmacological test procedures are provided below.
The comitogen-induced thymocyte proliferation procedure (LAF) was used as an in vitro measure of the immunosuppressive effects of representative compounds. Briefly, cells from the thymus of normal BALB/c mice are cultured for 72 hours with PHA and IL-1 and pulsed with tritiated thymidine during the last six hours. Cells are cultured with and without various concentrations of rapamycin, cyclosporin A, or test compound. Cells are harvested and incorporated radioactivity is determined. Inhibition of lymphoproliferation is assessed as percent change in counts per minute from non-drug treated controls. For each compound evaluated, rapamycin was also evaluated for the purpose of comparison. An IC50 was obtained for each test compound as well as for rapamycin. […] The results obtained are provided as an IC50.

[2] = test system: pinch skin graft from male BALB/c donors transplanted to male C3 H(H-2K) recipients; test: pinch skin graft survival test procedure; type: in vivo, C3 H(H-2K) recipients (mice); settings: for Skin graft survival time (mean survival time ± S.D.): 4 mg/kg, intraperitoneally or orally, untreated grafts rejected within 6-7 days
Experimental: Representative compounds of this invention were also evaluated in an in vivo test procedure designed to determine the survival time of pinch skin graft from male BALB/c donors transplanted to male C3 H(H-2K) recipients. […] Briefly, a pinch skin graft from the donor was grafted on the dorsum of the recipient as a allograft, and an isograft was used as control in the same region. The recipients were treated with either varying concentrations of test compounds intraperitoneally or orally. Rapamycin was used as a test control. Untreated recipients serve as rejection control. The graft was monitored daily and observations were recorded until the graft became dry and formed a blackened scab. This was considered as the rejection day. The mean graft survival time (number of days±S.D.) of the drug treatment group was compared with the control group. […] Results are expressed as the mean survival time in days. Untreated (control) pinch skin grafts are usually rejected within 6-7 days. Compounds were tested using a dose of 4 mg/kg.

[3] = test system: heart allograft from BN rat neonate donors in Lewis rats; test: heterotropic heart allograft standard pharmacological test procedure; type: in vivo; settings: 300 μg/day, i.p.; untreated allografts rejected in about 9-10 days
Experimental: as §1
The ability of the compounds of this invention to induce immunosuppression and inhibit or treat transplantation rejection was evaluated in a heterotropic heart allograft standard pharmacological test procedure that emulates transplantation rejection that occurs in humans. The following briefly describes the procedure that was used. […]

[4] = test system: Freud's Complete Adjuvant induced arthritis in rats; test: adjuvant arthritis standard pharmacological test procedure; type: in vivo, male inbread Wistar Lewis rats; settings: 5 mg/kg oral, 7 doses, day 16; more negative = more potent
Experimental: as §1, with “The procedures for these standard pharmacological test procedures are provided below.” left out
The adjuvant arthritis standard pharmacological test procedure measures the ability of test compounds to prevent immune mediated inflammation and inhibit or treat rheumatoid arthritis. […] Both hind paws are measured on days 16, 23, and 30. The difference in paw volume (mL) from day 16 to day 0 is determined and a percent change from control is obtained. […]

[5] = test system: Candida albicans; settings: in vitro and in vivo, particularly against Candida albicans; cited from earlier work
[6] = test system: experimental allergic encephalomyelitis; settings: model for multiple sclerosis; cited from earlier work
[7] = test system: adjuvant arthritis; settings: model for rheumatoid arthritis; cited from earlier work
[8] = test system: IgE-like antibodies; settings: cited from earlier work
[9] = thymocytes cultured 72 hours with PHA and IL-1, tritiated thymidine last six hours
[10] = thymocytes cultured 72 hours with PHA and IL-1, tritiated thymidine last six hours, maleate salt
[11] = thymocytes cultured 72 hours with PHA and IL-1, tritiated thymidine last six hours, hydrochloride salt

Q: With `CO[C@H]1C[C@@H]2CC[C@@H](C)[C@@](O)(O2)C(=O)C(=O)N2CCCC[C@H]2C(=O)O[C@H]([C@H](C)C[C@@H]2CC[C@@H](OC(=O)C3(N)CCCC3)[C@H](OC)C2)CC(=O)[C@H](C)/C=C(\C)[C@@H](O)[C@@H](OC)C(=O)[C@H](C)C[C@H](C)/C=C/C=C/C=C/1C` [Example 10, Rapamycin 42-ester with 1-aminocyclopentane carboxylic acid] as the molecule, how does the IC50 [1, 9] read?
A: 6 nM

Q: What about the “Skin graft survival time (mean survival time ± S.D.)” value (“Skin graft survival time” for short) [2] of the same molecule?
A: 10.5 ± 0.6 days and 10.2 ± 1.0 days

Q: With `CO[C@H]1C[C@@H]2CC[C@@H](C)[C@@](O)(O2)C(=O)C(=O)N2CCCC[C@H]2C(=O)O[C@H]([C@H](C)C[C@@H]2CC[C@@H](OC(=O)C3(N)CCCCC3)[C@H](OC)C2)CC(=O)[C@H](C)/C=C(\C)[C@@H](O)[C@@H](OC)C(=O)[C@H](C)C[C@H](C)/C=C/C=C/C=C/1C` [Example 14, Rapamycin 42-ester with 1-aminocyclohexane carboxylic acid] as the molecule, how does the “Skin graft survival time” value [2] read?
A: 10.6 ± 0.5 days and 12.4 ± 1.1 days

Q: With `CO[C@H]1C[C@@H]2CC[C@@H](C)[C@@](O)(O2)C(=O)C(=O)N2CCCC[C@H]2C(=O)O[C@H]([C@H](C)C[C@@H]2CC[C@@H](OC(=O)C(C)(C)N)[C@H](OC)C2)CC(=O)[C@H](C)/C=C(\C)[C@@H](O)[C@@H](OC)C(=O)[C@H](C)C[C@H](C)/C=C/C=C/C=C/1C` [Example 5, Rapamycin 42-ester with 2-amino-2-methylpropionic acid] as the molecule, how does the “Skin graft survival time” value [2] read?
A: 12.3 ± 1.0 days and 11.8 ± 1.3 days

Q: For `CO[C@H]1C[C@@H]2CC[C@@H](C)[C@@](O)(O2)C(=O)C(=O)N2CCCC[C@H]2C(=O)O[C@H]([C@H](C)C[C@@H]2CC[C@@H](OC(=O)C(C)(C)N)[C@H](OC)C2)CC(=O)[C@H](C)/C=C(\C)[C@@H](O)[C@@H](OC)C(=O)[C@H](C)C[C@H](C)/C=C/C=C/C=C/1C` [Example 6, Rapamycin 42-ester with 2-amino-2-methylpropionic acid maleate salt], which IC50 [1, 10] is on record?
A: 5.3 nM and 8.4 nM

Q: And the “Skin graft survival time” value ([2]; maleate salt)?
A: 12.0 ± 0.0 days and 11.0 ± 0.9 days

Q: What about the “Heart allograft survival time (mean)” value [3] of the same molecule?
A: 19.11 days

Q: What about the “Percent change in adjuvant arthritis versus control (uninjected paw)” value [4] of the same molecule?
A: -73%

Q: With `CO[C@H]1C[C@@H]2CC[C@@H](C)[C@@](O)(O2)C(=O)C(=O)N2CCCC[C@H]2C(=O)O[C@H]([C@H](C)C[C@@H]2CC[C@@H](OC(=O)C3(N)CCCCC3)[C@H](OC)C2)CC(=O)[C@H](C)/C=C(\C)[C@@H](O)[C@@H](OC)C(=O)[C@H](C)C[C@H](C)/C=C/C=C/C=C/1C` [Example 15, Rapamycin 42-ester with 1-aminocyclohexane carboxylic acid hydrochloride salt] as the molecule, how does the IC50 [1, 11] read?
A: 0.7 nM and 0.4 nM

Q: What about the “Skin graft survival time” value ([2]; hydrochloride salt) of the same molecule?
A: 11.5 ± 1.2 days and 11.2 ± 0.8 days

Q: With `CO[C@H]1C[C@@H]2CC[C@@H](C)[C@@](O)(O2)C(=O)C(=O)N2CCCC[C@H]2C(=O)O[C@H]([C@H](C)C[C@@H]2CCC(=O)[C@H](OC)C2)CC(=O)[C@H](C)/C=C(\C)[C@@H](OC(=O)CN(C)C)[C@@H](OC)C(=O)[C@H](C)C[C@H](C)/C=C/C=C/C=C/1C` [Example 2, 42-Oxorapamycin-31-ester with 31-N,N-dimethylglycine hydrochloride salt] as the molecule, how does the IC50 [1, 11] read?
A: 23.4 nM

Q: What about the “Skin graft survival time” value ([2]; hydrochloride salt) of the same molecule?
A: 10.0 ± 0.0 days and 10.3 ± 0.5 days

Q: Which IC50 ([1]; Mus musculus, Lymphocyte) does the source give for `CO[C@H]1C[C@@H]2CC[C@@H](C)[C@@](O)(O2)C(=O)C(=O)N2CCCC[C@H]2C(=O)O[C@H]([C@H](C)C[C@@H]2CC[C@@H](O)[C@H](OC)C2)CC(=O)[C@H](C)/C=C(\C)[C@@H](O)[C@@H](OC)C(=O)[C@H](C)C[C@H](C)/C=C/C=C/C=C/1C` [rapamycin] here?
A: 0.4 to 6.8 nM

Q: And the “antifungal activity (in words)” value [5]?
A: antifungal activity

Q: What about the “effect in the experimental allergic encephalomyelitis model (in words)” value [6] of the same molecule?
A: effective

Q: And the “effect in the adjuvant arthritis model (in words)” value [7]?
A: effective

Q: And the “formation of IgE-like antibodies (in words)” value [8]?
A: effectively inhibited

Q: With `CO[C@H]1C[C@@H]2CC[C@@H](C)[C@@](O)(O2)C(=O)C(=O)N2CCCC[C@H]2C(=O)O[C@H]([C@H](C)C[C@@H]2CC[C@@H](OC(=O)C(C)(C)N)[C@H](OC)C2)CC(=O)[C@H](C)/C=C(\C)[C@@H](O)[C@@H](OC)C(=O)[C@H](C)C[C@H](C)/C=C/C=C/C=C/1C` [Example 7, Rapamycin 42-ester with 2-amino-2,-methylpropionic acid hydrochloride salt] as the molecule, how does the IC50 [1, 11] read?
A: 3.9 nM

Q: What about the “Skin graft survival time” value ([2]; hydrochloride salt) of the same molecule?
A: 10.2 ± 1.2 days

Q: What does the source list for `CO[C@H]1C[C@@H]2CC[C@@H](C)[C@@](O)(O2)C(=O)C(=O)N2CCCC[C@H]2C(=O)O[C@H]([C@H](C)C[C@@H]2CCC(=O)[C@H](OC)C2)CC(=O)[C@H](C)/C=C(\C)[C@@H](OC(=O)CN(C)C)[C@@H](OC)C(=O)[C@H](C)C[C@H](C)/C=C/C=C/C=C/1C` [Example 3, 42-Oxorapamycin-31-ester with 31-N,N-dimethylglycine maleate salt]?
A: IC50 [1, 10]: 14.4 nM; Skin graft survival time (mean survival time ± S.D.) ([2]; maleate salt): 9.2 ± 1.3 days

Q: Which “immunosuppressive activity in the LAF procedure (in words)” value [1] does the source give for `CO[C@H]1C[C@@H]2CC[C@@H](C)[C@@](O)(O2)C(=O)C(=O)N2CCCC[C@H]2C(=O)O[C@H]([C@H](C)C[C@@H]2CC[C@@H](OC(=O)C(C)(C)NC(=O)OCC3c4ccccc4-c4ccccc43)[C@H](OC)C2)CC(=O)[C@H](C)/C=C(\C)[C@@H](O)[C@@H](OC)C(=O)[C@H](C)C[C@H](C)/C=C/C=C/C=C/1C` [Example 4, Rapamycin 42-ester with 2-(9H-fluoren-9-ylmethoxycarbonylamino)-2-methylpropionic acid] here?
A: shown to have immunosuppressive activity

Q: And the “Skin graft survival time” value [2]?
A: 11.7 ± 0.8 days and 14.2 ± 0.6 days

Q: What about the “immunosuppressive activity in the skin graft procedure (in words)” value ([2]; mouse, in vivo) of the same molecule?
A: shown to have immunosuppressive activity

Q: For `CO[C@H]1C[C@@H]2CC[C@@H](C)[C@@](O)(O2)C(=O)C(=O)N2CCCC[C@H]2C(=O)O[C@H]([C@H](C)C[C@@H]2CCC(=O)[C@H](OC)C2)CC(=O)[C@H](C)/C=C(\C)[C@@H](OC(=O)CN(C)C)[C@@H](OC)C(=O)[C@H](C)C[C@H](C)/C=C/C=C/C=C/1C` [Example 1, 42-Oxorapamycin-31-ester with 31-N,N-dimethylglycine], which IC50 [1, 9] is on record?
A: 9.7 nM

Q: What about the “Skin graft survival time” value [2] of the same molecule?
A: 9.6 ± 0.9 days

Q: With `CO[C@H]1C[C@@H]2CC[C@@H](C)[C@@](O)(O2)C(=O)C(=O)N2CCCC[C@H]2C(=O)O[C@H]([C@H](C)C[C@@H]2CC[C@@H](OC(=O)C3(N)CCCC3)[C@H](OC)C2)CC(=O)[C@H](C)/C=C(\C)[C@@H](O)[C@@H](OC)C(=O)[C@H](C)C[C@H](C)/C=C/C=C/C=C/1C` [Example 11, Rapamycin 42-ester with 1-aminocyclopentane carboxylic acid hydrochloride salt] as the molecule, how does the IC50 [1, 11] read?
A: 0.63 nM

Q: What about the “Skin graft survival time” value ([2]; hydrochloride salt) of the same molecule?
A: 10.3 ± 0.5 days and 11.5 ± 0.8 days and 12.3 ± 1.0 days
